Measurements published in article PMC4670083 (Nature medicine, 2015).

Biological target: T1, HPRT1 (Homo sapiens, UniProt P00492)
T1 sequence (P00492 2-218): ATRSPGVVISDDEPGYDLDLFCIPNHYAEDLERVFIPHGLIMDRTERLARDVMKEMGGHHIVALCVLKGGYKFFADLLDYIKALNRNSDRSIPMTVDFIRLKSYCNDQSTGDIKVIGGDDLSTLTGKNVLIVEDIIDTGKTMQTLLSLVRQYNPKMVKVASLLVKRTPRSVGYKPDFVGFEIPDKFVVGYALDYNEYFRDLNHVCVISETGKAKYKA
Experiment: biochemical

IC50: 7.7 µM
SMILES: O=c1[nH]cnc2nc[nH]c12 [HX, hypoxanthine]
